From patent US20020183205A1, “Use of alpha2-adrenergic receptor agonists and adrenergic inhibitors in reducing defoliation” (priority 2001, published 2002) come the findings set out here.

Holding throughout (type): in vivo
Experiment [1] concerns calamondin (Citrus madurensis). Briefly: Leaf drop of calamondin after canopy spray with agonists alone or in combination with Ethrel. The conditions noted are these: 7 days after application. On the procedure:
(§1) A solution of an α2-adrenergic agonist was prepared. The solution contained 0.25 to 2 mM of agonist dissolved in water containing an appropriate surfactant. Ethrel® (2-chloroethyl phosphonic acid), an abscission agent, was added at a concentration that causes fruit loosening (in the case of citrus, 100 to 400 mg/L, depending on the variety). The solution was sprayed onto a tree canopy until “run-off,” typically about 2.5 liters per 15 foot tree. […] Under field conditions the canopies were not sprayed with the agonist-containing solutions if rainfall was anticipated within 24 hours. A positive control, containing a suitable concentration of Ethrel® or other abscission agent, as well as an agonist and surfactant control were sprayed on separate canopies. After several days, usually 3 to 10, differences in leaf drop were measured by counting or weighing dropped leaves. Fruit detachment force (FDF, a measurement defined as the force required to remove fruit from the tree stem) was measured in all treatments.
(§2) Kinetic® was used as a surfactant. Leaf drop data are leaf loss means of 3 branches times 10 trees, 7 days after application. FDF data are means of 5 fruit times 10 trees, 5 days after application.

For experiment [2], the system named is calamondin (Citrus madurensis). Put plainly: Fruit detachment force (FDF) of calamondin after canopy spray with agonists alone or in combination with Ethrel. The note with it: 5 days after application. On the procedure: as §1, §2
The test system of experiment [3] is Valencia orange (Citrus sinensis). Put plainly: Leaf drop of Valencia orange, clonidine alone or in combination with Ethrel. The conditions noted are these: 7 days after application. On the procedure:
as §1
Kinetic® was used as a surfactant. Data are the leaf loss means of 3 branches times 5 trees, 7 days after application.

In a further experiment the test system is Valencia orange. Briefly: Leaf drop of Valencia orange, Ethrel, coronatine, coronatine+guanfacine. The conditions noted are these: 10 days after application. On the procedure: The effect of Ethrel, coronatine, coronatine+guanfacine, and adjuvant alone on % cumulative leaf drop in Valencia orange was tested. The data reported in Table 3 are means of 3 branches times 5 trees, 10 days after application.

Where [4] appears, read: agonist 1 mM + Ethrel 400 mg/L, Kinetic surfactant.
Where [5] appears, read: agonist 1 mM alone, Kinetic surfactant.
The mark [6] stands for this setting: Ethrel 400 mg/L alone (positive control).
Where [7] appears, read: agonist 0.5 mM + Ethrel 400 mg/L, Kinetic surfactant.
The mark [8] stands for this setting: agonist 0.5 mM alone, Kinetic surfactant.

The structures appear in SMILES notation.

Consider `Clc1cccc(Cl)c1N=C1NCCN1` [Clonidine, clonidine], for which the “% Cumulative Leaf Drop” value in experiment [1] (setting [4]) was determined as 13.4%; in experiment [1] (setting [5]), 5.8%; in experiment [3] (1 mM clonidine + Ethrel 100 mg/L), 6.1%; in experiment [3] (1 mM clonidine + Ethrel 200 mg/L), 14.3%; in experiment [3] (1 mM clonidine alone), 2.7%; in experiment [3] (2 mM clonidine + Ethrel 100 mg/L) it was 7.0%. Besides, the “% Cumulative Leaf Drop” value in experiment [3] (2 mM clonidine + Ethrel 200 mg/L) was 15.1%; in experiment [3] (2 mM clonidine alone) it was 3.2%. Moreover, the “% Reduction in FDF” value amounted to 40.5% in experiment [2] (setting [4]) and 0.5% in experiment [2] (setting [5]).

As for `O=P(O)(O)CCCl` [Ethrel ®, 2-chloroethyl phosphonic acid], the “% Cumulative Leaf Drop” value in experiment [1] (setting [6]) came out at 68.3%; in experiment [3] (Ethrel 100 mg/L alone), 19.1%; in experiment [3] (Ethrel 200 mg/L alone), 43.8%; in the experiment with Valencia orange (Ethrel 200 mg/L alone) it was 49.23%. Further, the “% Reduction in FDF” value in experiment [2] (setting [6]) is 41.6%.

Regarding `CC[C@H]1C=C(C(=O)N[C@@]2(C(=O)O)C[C@@H]2CC)[C@H]2CCC(=O)[C@H]2C1` [coronatine], the “% Cumulative Leaf Drop” value in the experiment with Valencia orange (coronatine 200 mg/L alone) turned out to be 12.56%.

With `Brc1c(NC2=NCCN2)ccc2nccnc12` [UK14,304, Brimonidine], the “% Cumulative Leaf Drop” value in experiment [1] (setting [7]) came to 15.6%; in experiment [1] (setting [8]), 6.0%. The “% Reduction in FDF” value in experiment [2] (setting [7]) was found to be 33.4%; in experiment [2] (setting [8]), 1.2%.

With `N=C(N)N/N=C/c1c(Cl)cccc1Cl` [Guanabenz, guanabenz], the “% Cumulative Leaf Drop” value in experiment [1] (setting [4]) was 14.1%; in experiment [1] (setting [5]), 5.9%. In addition, the “% Reduction in FDF” value in experiment [2] (setting [4]) is 34.6%; in experiment [2] (setting [5]), 1.0%.

For `N=C(N)NC(=O)Cc1c(Cl)cccc1Cl` [Guanafacine, guanfacine], the figures for the “% Cumulative Leaf Drop” value (in experiment [1] (setting [4]); in experiment [1] (setting [5]); with Valencia orange (2 mM guanfacine + coronatine 200 mg/L)) were 4.8%, 6.5% and 3.07%, respectively. Also, the “% Reduction in FDF” value worked out at 34.8% in experiment [2] (setting [4]) and 1.0% in experiment [2] (setting [5]).
